{"source": "patent US7223403B2", "about": "“Method to prepare compositions comprising yeast treated with electromagnetic energy” (Ultra Biotech Limited, priority 2003, dated 2007)", "key": {"[1]": {"test_system": "kun ming murine brain cancer cell line B22", "assay": "kun ming mouse model of human brain cancer, growth of the tumor (Example 6)", "details": "B22 tumor-bearing mice, 30 consecutive days of treatment, sacrificed on 31st day; AY/NY 0.3 ml oral once per day, BCNU 0.8 mg/kg/day s.c.", "experimental": "(§1) The biological composition comprising 10^8 cells per ml of activated and conditioned yeast cells of the strain Saccharomyces cerevisiae Hansen strain AS2.501 was prepared by the methods described in Section 5.1 and subsections therein.\nThe mice injected with tumor cells were immediately divided into 4 experimental groups of ten mice per group and one control group. The four experimental groups were triplicated (i.e., using a total of 120 mice in the experimental groups).\nThe mice received the biological compositions, untreated yeast cells, BCNU or saline on the same day as the tumor cells were transplanted. The mice in group CK2 also started receiving saline on the same day as the other four groups. The biological compositions, untreated yeast cells and saline were administered orally by a feeding tube and the BCNU by subcutaneous injection for 30 consecutive days. […] The weight of the mice and the weight of the tumor were determined by standard techniques."}, "[2]": {"test_system": "kun ming murine brain cancer cell line B22", "details": "2BCNU 1.2 mg/kg/day s.c.; for Number of live animals remaining in the groups after 30 days of treatment: 30 mice per group", "experimental": "The survival time of mice after tumor injection and treatment was studied.\nas §1\nThe animals were prepared in a similar manner as described in Section 6.1.\n(§2) The mice injected with tumor cells were immediately divided into 4 experimental groups of ten mice per group and one control group. The four experimental groups were triplicated (i.e., using a total of 120 mice in the experimental groups). In group 2AY, the mice received 0.5 ml of the biological composition once per day. In group 2NY, the mice received 0.5 ml of the untreated yeast cells once per day. In group 2BCNU, the mice were injected subcutaneously with 1.2 mg of chloroethylnitrosourea (BCNU) per kg body weight per day. In group 2CK1, the mice received 0.5 ml of physiological saline once per day.\n(§3) The mice received the biological compositions, untreated yeast cells, BCNU or saline on the same day as the tumor cells were transplanted. The mice in group 2CK2 also started receiving saline on the same day as the other four groups. The biological compositions, untreated yeast cells and saline were administered orally by a feeding tube and the BCNU by subcutaneous injection for 30 consecutive days. The mice were observed over 6 months from the day of tumor inoculation and survival was recorded. The weight of the mice and the weight of the tumor were determined by standard techniques."}, "[3]": {"test_system": "Wistar King rat brain cancer cell line WKS-1", "assay": "Wistar rat model of human brain cancer, growth of the tumor (Example 8)", "format": "in vivo", "details": "WKS-1 tumor-bearing rats, 30 consecutive days of treatment, sacrificed on 31st day; AY/NY 0.8 ml oral once per day, VCR 3 mg/kg/day i.v.", "experimental": "The growth of the tumor in the rats was studied.\nAbout 2×10^7 viable tumor cells of the Wistar King rat brain cancer type WKS-1 (obtainable from the Shanghai Medical University, Shanghai, China) in about 0.4 ml culture suspension were injected subcutaneously into the animals.\nIn group AY, the rats received 0.8 ml of the biological composition once per day. In group NY, the rats received 0.8 ml of the untreated yeast cells once per day. […] In group CK1, the rats received 0.8 ml of physiological saline once per day.\nOn the 31st day from tumor inoculation, the rats were sacrificed."}, "[4]": {"test_system": "Wistar King rat brain cancer cell line WKS-1", "details": "2VCR 4.5 mg/kg/day i.v.; for Number of live animals remaining in the groups after 30 days of treatment: 30 rats per group", "experimental": "The survival time of rats after tumor injection and treatment was studied.\nas §1\nThe animals were prepared in a similar manner as described in Section 8.1.\nas §2, with “rats” for “mice”, “1.2” for “0.5”, “2VCR,” for “2BCNU,”, “intravenously” for “subcutaneously”, “4.5” for “1.2”, “[…] (VCR)” for “chloroethylnitrosourea (BCNU)”\nas §3, with “The rats” for “The mice”, “cells, VCR,” for “cells, BCNU”, “the VCR” for “the BCNU”, “by intravenous” for “by subcutaneous”, “the rats” for “the mice”"}, "[5]": {"details": "mice that survived, observed over 6 months, 2AY/2NY 0.5 ml oral per day, 30 days"}, "[6]": {"details": "rats that survived, observed over 6 months, 2AY/2NY 1.2 ml oral per day, 30 days"}}, "note": "Read-outs that look alike come from different tables or passages of the source."}
{"smiles": "O=NN(CCCl)C(=O)NCCCl", "note": "[BCNU, chloroethylnitrosourea]", "values": [{"measurement": "mean weight of mice and standard deviation", "setting": "[1]", "value": "18.4 ± 3.4", "unit": "g"}, {"measurement": "mean weight of tumor nodules and standard deviation", "setting": "[1]", "value": "1.02 ± 0.52", "unit": "mg"}, {"measurement": "Number of live animals remaining in the groups after 30 days of treatment", "setting": "[2]; 0 month after cessation of treatment, 2AY/2NY 0.5 ml oral per day", "value": 30}, {"measurement": "Number of live animals remaining in the groups after 30 days of treatment", "setting": "[2]; 1 month after cessation of treatment, 2AY/2NY 0.5 ml oral per day", "value": 21}, {"measurement": "survival outcome during the experiment", "setting": "[2]; 2NY 0.5 ml oral per day, 30 days, observed over 6 months", "value": "all died during the experiment"}, {"measurement": "Number of live animals remaining in the groups after 30 days of treatment", "setting": "[2]; 2 months after cessation of treatment, 2AY/2NY 0.5 ml oral per day", "value": 15}, {"measurement": "Number of live animals remaining in the groups after 30 days of treatment", "setting": "[2]; 3 months after cessation of treatment, 2AY/2NY 0.5 ml oral per day", "value": 4}, {"measurement": "Number of live animals remaining in the groups after 30 days of treatment", "setting": "[2]; 4 months after cessation of treatment, 2AY/2NY 0.5 ml oral per day", "value": 0}, {"measurement": "Number of live animals remaining in the groups after 30 days of treatment", "setting": "[2]; 5 months after cessation of treatment, 2AY/2NY 0.5 ml oral per day", "value": 0}, {"measurement": "Number of live animals remaining in the groups after 30 days of treatment", "setting": "[2]; 6 months after cessation of treatment, 2AY/2NY 0.5 ml oral per day", "value": 0}, {"measurement": "mean weight of mice and standard deviation", "setting": "[2]; [5]", "value": "all animals dead"}, {"measurement": "mean weight of tumor nodules and standard deviation", "setting": "[2]; [5]", "value": "all animals dead"}]}
{"smiles": "CC[C@]1(O)C[C@@H]2CN(CCc3c([nH]c4ccccc34)[C@@](C(=O)OC)(c3cc4c(cc3OC)N(C)[C@H]3[C@@](O)(C(=O)OC)[C@H](OC(C)=O)[C@]5(CC)C=CCN6CC[C@]43[C@@H]65)C2)C1", "note": "[VCR, vinblastine]", "values": [{"measurement": "mean weight of rats and standard deviation", "setting": "[3]", "value": "188.3 ± 8.3", "unit": "g"}, {"measurement": "mean weight of tumor nodules and standard deviation", "setting": "[3]", "value": "2.87 ± 2.54", "unit": "g"}, {"measurement": "Number of live animals remaining in the groups after 30 days of treatment", "setting": "[4]; 0 month after cessation of treatment, 2AY/2NY 1.2 ml oral per day", "value": 30}, {"measurement": "Number of live animals remaining in the groups after 30 days of treatment", "setting": "[4]; 1 month after cessation of treatment, 2AY/2NY 1.2 ml oral per day", "value": 30}, {"measurement": "survival outcome during the experiment", "setting": "[4]; 2NY 1.2 ml oral per day, 30 days, observed over 6 months", "value": "all died during the experiment"}, {"measurement": "Number of live animals remaining in the groups after 30 days of treatment", "setting": "[4]; 2 months after cessation of treatment, 2AY/2NY 1.2 ml oral per day", "value": 30}, {"measurement": "Number of live animals remaining in the groups after 30 days of treatment", "setting": "[4]; 3 months after cessation of treatment, 2AY/2NY 1.2 ml oral per day", "value": 17}, {"measurement": "Number of live animals remaining in the groups after 30 days of treatment", "setting": "[4]; 4 months after cessation of treatment, 2AY/2NY 1.2 ml oral per day", "value": 7}, {"measurement": "Number of live animals remaining in the groups after 30 days of treatment", "setting": "[4]; 5 months after cessation of treatment, 2AY/2NY 1.2 ml oral per day", "value": 3}, {"measurement": "Number of live animals remaining in the groups after 30 days of treatment", "setting": "[4]; 6 months after cessation of treatment, 2AY/2NY 1.2 ml oral per day", "value": 0}, {"measurement": "mean weight of rats and standard deviation", "setting": "[4]; [6]", "value": "all animals dead"}, {"measurement": "mean weight of tumor nodules and standard deviation", "setting": "[4]; [6]", "value": "all animals dead"}]}
